These results are taken from patent publication US9422293B2 (priority 2006, dated 2016).

Counter-ions that a name gives are not always drawn.

This assay has as its target rat TRPV1 (Rattus norvegicus (Rat), UniProt O35433). The conditions noted are these: read-out: Rat IC50.

rat TRPV1, sequence (O35433 whole entry): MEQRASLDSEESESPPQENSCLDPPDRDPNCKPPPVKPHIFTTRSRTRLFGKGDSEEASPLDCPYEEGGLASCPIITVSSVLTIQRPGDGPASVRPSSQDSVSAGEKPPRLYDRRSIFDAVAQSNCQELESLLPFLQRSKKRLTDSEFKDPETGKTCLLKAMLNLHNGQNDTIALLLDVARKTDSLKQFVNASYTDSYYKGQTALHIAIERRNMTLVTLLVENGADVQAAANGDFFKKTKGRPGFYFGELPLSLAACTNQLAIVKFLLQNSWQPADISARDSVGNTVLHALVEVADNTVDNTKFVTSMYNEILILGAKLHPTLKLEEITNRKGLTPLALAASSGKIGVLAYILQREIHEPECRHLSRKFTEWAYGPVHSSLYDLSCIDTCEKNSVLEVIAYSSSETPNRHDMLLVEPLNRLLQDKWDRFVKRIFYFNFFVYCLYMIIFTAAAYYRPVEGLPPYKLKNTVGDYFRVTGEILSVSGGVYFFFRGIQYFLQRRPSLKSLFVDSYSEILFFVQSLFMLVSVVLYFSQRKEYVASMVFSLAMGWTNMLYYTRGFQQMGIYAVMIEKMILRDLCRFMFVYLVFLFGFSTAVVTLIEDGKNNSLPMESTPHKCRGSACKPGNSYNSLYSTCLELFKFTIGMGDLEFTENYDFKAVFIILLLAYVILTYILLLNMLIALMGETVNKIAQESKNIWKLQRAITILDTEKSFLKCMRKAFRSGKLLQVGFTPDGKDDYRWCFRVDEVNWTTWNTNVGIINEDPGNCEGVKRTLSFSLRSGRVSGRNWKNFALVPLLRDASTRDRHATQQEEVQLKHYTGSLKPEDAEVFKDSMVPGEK

What is called IC50 is the concentration that inhibits the measured activity by half. On to `COc1ccccc1CCNc1nc(C(C)C)nc2c1CCN(c1ncccc1C(F)(F)F)CC2` [Example 126, 2-(1-Methylethyl)-N-{2-[2-(methyloxy)phenyl]ethyl}-7-[3-(trifluoromethyl)pyridin-2-yl]-6,7,8,9-tetrahydro-5H-pyrimido[4,5-d]azepin-4-amine], for which the IC50 turned out to be 1190 nM.
The value for `CC(C)c1nc2c(c(Nc3ccc(C(C)(C)C(=O)O)cc3)n1)CCN(c1ncccc1C(F)(F)F)CC2` [Example 184, 2-Methyl-2-[4-({2-(1-methylethyl)-7-[3-(trifluoromethyl)pyridin-2-yl]-6,7,8,9-tetrahydro-5H-pyrimido[4,5-d]azepin-4-yl}amino)phenyl]propanoic acid] was 1950 nM; that for `OC[C@@H]1CCCN1c1nc2c(c(Nc3ccc(C(F)(F)F)cc3)n1)CCN(c1ncccc1C(F)(F)F)CC2` [Example 260, [(2S)-1-(4-{[4-(Trifluoromethyl)phenyl]amino}-7-[3-(trifluoromethyl)pyridin-2-yl]-6,7,8,9-tetrahydro-5H-pyrimido[4,5-d]azepin-2-yl)pyrrolidin-2-yl]methanol hydrochloride salt] was 50 nM.
`CSc1nc2c(c(Nc3ccc(C(F)(F)F)cc3Cl)n1)CCN(c1ncccc1C(F)(F)F)CC2` [Example 203, N-[2-Chloro-4-(trifluoromethyl)phenyl]-2-(methylsulfanyl)-7-[3-(trifluoromethyl)pyridin-2-yl]-6,7,8,9-tetrahydro-5H-pyrimido[4,5-d]azepin-4-amine]: the half-maximal inhibitory concentration (IC50) is more than 6670 nM.
As for `CC(C)c1nc2c(c(Nc3ccc(N4CCCC4)cc3)n1)CCN(c1ncccc1C(F)(F)F)CC2` [Example 377, 2-(1-Methylethyl)-N-(4-pyrrolidin-1-ylphenyl)-7-[3-(trifluoromethyl)pyridin-2-yl]-6,7,8,9-tetrahydro-5H-pyrimido[4,5-d]azepin-4-amine], the figure is 1410 nM.
Take `FC(F)(F)c1ccc(Nc2nc(N3CCCOCC3)nc3c2CCN(c2ncccc2C(F)(F)F)CC3)cc1Cl` [Example 245, N-[3-Chloro-4-(trifluoromethyl)phenyl]-2-(1,4-oxazepan-4-yl)-7-[3-(trifluoromethyl)pyridin-2-yl]-6,7,8,9-tetrahydro-5H-pyrimido[4,5-d]azepin-4-amine trifluoroacetic acid salt]: the IC50 turned out to be 20 nM.
As for `CC(Oc1nc2c(c(Nc3ccc4c(c3)N(C)CCC4)n1)CCN(c1ncccc1C(F)(F)F)CC2)C1CCCCC1` (stereo not drawn) [Example 316, 2-[(1-Cyclohexylethyl)oxy]-N-(1-methyl-1,2,3,4-tetrahydroquinolin-7-yl)-7-[3-(trifluoromethyl)pyridin-2-yl]-6,7,8,9-tetrahydro-5H-pyrimido[4,5-d]azepin-4-amine], the figure is 1180 nM; as for `CCCSc1nc2c(c(Nc3ccc(C(F)(F)F)cc3)n1)CCN(c1ncccc1C(F)(F)F)CC2` [Example 375, 2-(Propylsulfanyl)-N-[4-(trifluoromethyl)phenyl]-7-[3-(trifluoromethyl)pyridin-2-yl]-6,7,8,9-tetrahydro-5H-pyrimido[4,5-d]azepin-4-amine], more than 6670 nM; as for `FC(F)(F)c1ccc(Nc2nc(-c3ccoc3)nc3c2CCN(c2ncccc2C(F)(F)F)CC3)cc1` [Example 146, 2-Furan-3-yl-N-[4-(trifluoromethyl)phenyl]-7-[3-(trifluoromethyl)pyridin-2-yl]-6,7,8,9-tetrahydro-5H-pyrimido[4,5-d]azepin-4-amine], 720 nM.
Regarding `FC(F)(F)c1ccc(Nc2nc(OC3CCCCCC3)nc3c2CCN(c2ncccc2C(F)(F)F)CC3)cc1` [Example 336, 2-(Cycloheptyloxy)-N-[4-(trifluoromethyl)phenyl]-7-[3-(trifluoromethyl)pyridin-2-yl]-6,7,8,9-tetrahydro-5H-pyrimido[4,5-d]azepin-4-amine], the concentration for half-maximal inhibition (IC50) was 1640 nM.
Regarding `CC(C)(C)c1ccc(Nc2nc(N3CCC3)nc3c2CCN(c2ncccc2C(F)(F)F)CC3)cc1` [Example 249, 2-Azetidin-1-yl-N-[4-(1,1-dimethylethyl)phenyl]-7-[3-(trifluoromethyl)pyridin-2-yl]-6,7,8,9-tetrahydro-5H-pyrimido[4,5-d]azepin-4-amine], the half-inhibitory concentration (IC50) came to 830 nM.
In the case of `COCc1nc2c(c(Nc3ccc(C(F)(F)F)nc3)n1)CCN(c1ncccc1C(F)(F)F)CC2` [Example 346, 2-[(Methyloxy)methyl]-7-[3-(trifluoromethyl)pyridin-2-yl]-N-[6-(trifluoromethyl)pyridin-3-yl]-6,7,8,9-tetrahydro-5H-pyrimido[4,5-d]azepin-4-amine trifluoroacetic acid salt], the concentration for half-maximal inhibition (IC50) is more than 6670 nM.
As for `Cc1nc2c(c(Nc3ccc(C(F)(F)F)cc3)n1)CCN(c1ncccc1C(F)(F)F)CC2` [Example 16, [2-Methyl-7-(3-trifluoromethyl-pyridin-2-yl)-6,7,8,9-tetrahydro-5H-pyrimido-[4,5-d]azepin-4-yl]-(4-trifluoromethyl-phenyl)-amine], the figure is 100 nM; as for `CC(C)c1nc2c(c(Nc3cnc4ccccc4c3)n1)CCN(c1ncccc1C(F)(F)F)CC2` [Example 21, [2-Isopropyl-7-(3-trifluoromethyl-pyridin-2-yl)-6,7,8,9-tetrahydro-5H-pyrimido[4,5-d]azepin-4-yl]-quinolin-3-yl-amine], 1100 nM.
As to `CC(Oc1nc2c(c(Nc3ccc(S(=O)(=O)N4CCCC4)cc3)n1)CCN(c1ncccc1C(F)(F)F)CC2)C1CCCCC1` (stereo not drawn) [Example 320, 2-[(1-Cyclohexylethyl)oxy]l-N-[4-(pyrrolidin-1-ylsulfonyl)phenyl]-7-[3-(trifluoromethyl)pyridin-2-yl]-6,7,8,9-tetrahydro-5H-pyrimido[4,5-d]azepin-4-amine], the IC50 turned out to be 20 nM.
As for `COCc1nc2c(c(Nc3ccc(C(C)(C)C#N)cc3)n1)CCN(c1ncccc1C(F)(F)F)CC2` [Example 347, 2-Methyl-2-[4-({2-[(methyloxy)methyl]-7-[3-(trifluoromethyl)pyridin-2-yl]-6,7,8,9-tetrahydro-5H-pyrimido[4,5-d]azepin-4-yl}amino)phenyl]propanenitrile trifluoroacetic acid salt], the figure is 1320 nM; as for `CC(C)(O)c1ccc(Nc2nc(N3CCOCC3)nc3c2CCN(c2ncccc2C(F)(F)F)CC3)cc1` [Example 389, 2-{4-[2-Morpholin-4-yl-7-(3-trifluoromethyl-pyridin-2-yl)-6,7,8,9-tetrahydro-5H-pyrimido[4,5-d]azepin-4-ylamino]-phenyl}-propan-2-ol], 320 nM; as for `O=C1CN(c2nc3c(c(Nc4ccc(C(F)(F)F)cc4)n2)CCN(c2ncccc2C(F)(F)F)CC3)CCN1` [Example 90B, 4-[4-(4-Trifluoromethyl-phenylamino)-7-(3-trifluoromethyl-pyridin-2-yl)-6,7,8,9-tetrahydro-5H-pyrimido[4,5-d]azepin-2-yl]-piperazin-2-one trifluoroacetic acid salt], more than 6700 nM.
As for `CN1CCN(c2nc3c(c(Nc4ccc(C(F)(F)F)cc4)n2)CCN(c2ncccc2C(F)(F)F)CC3)CC1` [Example 92B, [2-(4-Methyl-piperazin-1-yl)-7-(3-trifluoromethyl-pyridin-2-yl)-6,7,8,9-tetrahydro-5H-pyrimido[4,5-d]azepin-4-yl]-(4-trifluoromethyl-phenyl)-amine trifluoroacetic acid salt], the figure is 270 nM.
On to `CN1CCCc2ccc(Nc3nc(OC4CCCCC4)nc4c3CCN(c3ncccc3C(F)(F)F)CC4)cc21` [Example 328, 2-(Cyclohexyloxy)-N-(1-methyl-1,2,3,4-tetrahydroquinolin-7-yl)-7-[3-(trifluoromethyl)pyridin-2-yl]-6,7,8,9-tetrahydro-5H-pyrimido[4,5-d]azepin-4-amine], for which the concentration for half-maximal inhibition (IC50) was 250 nM.
The value for `O=S(=O)(c1ccc(Nc2nc(OC3CCOCC3)nc3c2CCN(c2ncccc2C(F)(F)F)CC3)cc1)N1CCCC1` [Example 335, N-[4-(Pyrrolidin-1-ylsulfonyl)phenyl]-2-(tetrahydro-2H-pyran-4-yloxy)-7-[3-(trifluoromethyl)pyridin-2-yl]-6,7,8,9-tetrahydro-5H-pyrimido[4,5-d]azepin-4-amine] was 150 nM; that for `Cc1ccc(Nc2nc(C(C)C)nc3c2CCN(c2ncccc2C(F)(F)F)CC3)cc1` [Example 151, 2-(1-Methylethyl)-N-(4-methylphenyl)-7-[3-(trifluoromethyl)pyridin-2-yl]-6,7,8,9-tetrahydro-5H-pyrimido[4,5-d]azepin-4-amine hydrochloride salt] was 820 nM; that for `Cc1cc(C(F)(F)F)ccc1Nc1nc(SCC(C)O)nc2c1CCN(c1ncccc1C(F)(F)F)CC2` (stereo not drawn) [Example 367, 1-[(4-{[2-Methyl-4-(trifluoromethyl)phenyl]amino}-7-[3-(trifluoromethyl)pyridin-2-yl]-6,7,8,9-tetrahydro-5H-pyrimido[4,5-d]azepin-2-yl)sulfanyl]propan-2-ol] was more than 6670 nM.
The value for `CSc1nc2c(c(Nc3ccc(C(F)(F)F)nc3)n1)CCN(c1ncccc1C(F)(F)F)CC2` [Example 75B, [2-Methylsulfanyl-7-(3-trifluoromethyl-pyridin-2-yl)-6,7,8,9-tetrahydro-5H-pyrimido[4,5-d]azepin-4-yl]-(6-trifluoromethyl-pyridin-3-yl)-amine trifluoroacetic acid salt] was 40 nM.
The value for `CC(C)c1nc2c(c(Nc3ccc(C(C)(C)CO)cc3)n1)CCN(c1ncccc1C(F)(F)F)CC2` [Example 181, 2-Methyl-2-[4-({2-(1-methylethyl)-7-[3-(trifluoromethyl)pyridin-2-yl]-6,7,8,9-tetrahydro-5H-pyrimido[4,5-d]azepin-4-yl}amino)phenyl]propan-1-ol] was 820 nM; that for `FC(F)(F)c1ccc(Nc2nc(SCc3ccccc3)nc3c2CCN(c2ncccc2C(F)(F)F)CC3)cc1` [Example 353, 2-[(Phenylmethyl)sulfanyl]-N-[4-(trifluoromethyl)phenyl]-7-[3-(trifluoromethyl)pyridin-2-yl]-6,7,8,9-tetrahydro-5H-pyrimido[4,5-d]azepin-4-amine] was 240 nM.
For `CN(C)c1nc2c(c(NCc3ccccc3)n1)CCN(c1ncccc1C(F)(F)F)CC2` [Example 70B, N^4-Benzyl-N^2,N^2-dimethyl-7-(3-trifluoromethyl-pyridin-2-yl)-6,7,8,9-tetrahydro-5H-pyrimido[4,5-d]azepine-2,4-diamine trifluoroacetic acid salt], the IC50 turned out to be 4400 nM.
